Assay [1] concerns Renal cancer cell line ACHN cell. Description: Growth inhibitory effect against cancer cell lines (3H-thymidine uptake), ACHN. It counts as cell-based. Particulars: Homo sapiens, ACHN. An outline of the steps:
(§1)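 Cells seeded at 1.0×10^4/well, grown 24 hrs, then exposed to compound in DMSO for 18 hrs before 6 hrs pulse with ^3H-thymidine (0.25 μCi/well). Harvested cell-incorporated radioactivity counted; IC50 is the concentration halving uptake versus DMSO control, triplicate.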

The target in assay [2] is B-Raf and MEK1 (Homo sapiens, UniProt Q02750). The experiment in a line: MEK enzyme inhibitory activity, B-Raf and MEK1 system. Particulars: 30° C., 20 min, [γ-32P]-ATP; average of two or three tests. It counts as biochemical. The procedure: (§2) To an evaluation system where Raf (B-Raf or c-Raf) and MEK (MEK1 or MEK2) were mixed, or MEK (MEK1 or MEK2) and ERK2 were mixed was added a test substance dissolved in DMSO, and an ATP solution containing [γ-32P]-ATP was added to start the enzyme reaction. After reacting at 30° C. for 20 min, the reaction mixture was subjected to SDS-PAGE (sodium dodecylsulfate-polyacrylamide gel electrophoresis) and radioactivity of phosphorylated MEK or ERK2 was measured by Bio Imaging Analyzer (BAS2000, Fuji photo film).

Assay [3] addresses MEK1 and ERK2 (Homo sapiens, UniProt Q02750). Description: MEK enzyme inhibitory activity, MEK1 and ERK2 system. Type of assay: biochemical. The conditions noted are these: 30° C., 20 min, [γ-32P]-ATP; average of two or three tests. The procedure:
as §2

The test system of assay [4] is p27 protein. The experiment in a line: p27 protein induction test (Western blotting). The conditions noted are these: test substance (0.1 1M), 24 hrs, ACHN cells or HT-29 cells, compared to DMSO, n=2. Type of assay: cell-based. An outline of the steps:
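ACHN or HT-29 cells grown 24 h, then treated with test substance at […] (DMSO) for 24 h. Lysates normalised by protein content and probed by Western blot with anti-p27 antibody. Band density quantified by densitometer against DMSO control, n=2 averaged.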
A general note: Immunoblotting shows a protein as a band on a membrane.

Assay [5] has as its target MEK2 and ERK2 (Homo sapiens, UniProt P36507). Description: MEK enzyme inhibitory activity, MEK2 and ERK2 system. It counts as biochemical. Particulars: 30° C., 20 min, [γ-32P]-ATP; average of two or three tests. The procedure:
as §2

Assay [6] concerns colorectal cancer cell line HT-29 cells. Description: Growth inhibitory effect against cancer cell lines (3H-thymidine uptake), HT-29. The conditions noted are these: Homo sapiens, HT-29, inhibition of 3H-thymidine uptake; test substance 18 hrs, then 3H-thymidine 6 hrs; triplicate. It counts as cell-based. Summed up:
as §1

For assay [7], the target named is B-Raf and MEK2 (Homo sapiens, UniProt P36507). Description: MEK enzyme inhibitory activity, B-Raf and MEK2 system. Type of assay: biochemical. Particulars: 30° C., 20 min, [γ-32P]-ATP; average of two or three tests. The procedure: as §2
The test system of assay [8] is HT-29 cells. Description: Evaluation on the nude-mouse xenograft model. Type of assay: in vivo, mouse (Balb/c-nu/nu). Particulars: HT-29, po, 240 h, 30 mg/kg orally twice a day for 10 days, tumor volume, treated vs vehicle group, n=6-8, read-out: T/C(%). The method, then: HT-29 cells (5.0×10^6 cells/100 μL/head, suspended in HBSS (Hanks' solution)) in the logarithmic growth phase were implanted in a mouse (Balb/c-nu/nu) at the right lateral abdomen under ether anesthesia. After 5 days of implantation, the long diameter and short diameter of the tumor were measured, and the mice were divided into groups such that each group has an equivalent average tumor volume. For grouping, a grouping soft (general grouping system (Visions) was used. From the next day of the grouping, a test substance suspended in 0.5% MC (methyl cellulose) was repeatedly orally administered twice a day for 10 days (30 mg/kg). The tumor volume was measured twice a week and used as an index of antitumor activity. As a control, 0.5% MC was used and the test was performed with n=6-8.
The index (T/C (%)) of the antitumor activity was calculated according to the following formula.
T/C(%)=(The average tumor volume of the group treated with a test substance)/(The average tumor volume of the Vehicle group)×100
The tumor volume was calculated according to the following formula.
Tumor volume(mm^3)=L×W×W/2
(L: long diameter (mm) of tumor, W: short diameter (mm) of tumor)

Assay [9] concerns the target c-Raf and MEK2 (Homo sapiens, UniProt P36507). The experiment in a line: MEK enzyme inhibitory activity, c-Raf and MEK2 system. It counts as biochemical. Particulars: 30° C., 20 min, [γ-32P]-ATP; average of two or three tests. The procedure:
as §2

In assay [10] the test system is mouse (DBA/1) collagen arthritis. Particulars: 17 days after boost, 1 mg/kg oral once a day for 38 days; medium group 2.2; p<0.001; n=16.
Experimental: Bovine type II collagen (100 μg) was resuspended with Freund's complete adjuvant and intracutaneously administered (initial immunization) to the tail head of mouse (DBA/1). Three weeks later, the same collagen was given to the tail head as boost, whereby multiple arthritis was induced. The test substance was oral administered forcibly once a day for 38 days from immediately before the initial immunization, and arthritis score after boost was calculated twice a week to examine the arthritis onset suppressing effect. For arthritis scores, the level of swelling of each of the four limbs of the mice was scored in 4 levels, and the average of the scores of four limbs was taken as the arthritis score of each individual. The test was performed with n=16.

Experimental findings from patent US20180273531A1, “PYRIMIDINE COMPOUND AND MEDICAL USE THEREOF” (Japan Tobacco Inc., priority 2004, published 2018) are described below.

In general, IC50 refers to the midpoint of a concentration-inhibition curve. Low values mean greater potency, high ones weaker potency. A word on the fold induction: it is the ratio of treated to control signal.

c-Raf and MEK2, sequence (P36507 whole entry): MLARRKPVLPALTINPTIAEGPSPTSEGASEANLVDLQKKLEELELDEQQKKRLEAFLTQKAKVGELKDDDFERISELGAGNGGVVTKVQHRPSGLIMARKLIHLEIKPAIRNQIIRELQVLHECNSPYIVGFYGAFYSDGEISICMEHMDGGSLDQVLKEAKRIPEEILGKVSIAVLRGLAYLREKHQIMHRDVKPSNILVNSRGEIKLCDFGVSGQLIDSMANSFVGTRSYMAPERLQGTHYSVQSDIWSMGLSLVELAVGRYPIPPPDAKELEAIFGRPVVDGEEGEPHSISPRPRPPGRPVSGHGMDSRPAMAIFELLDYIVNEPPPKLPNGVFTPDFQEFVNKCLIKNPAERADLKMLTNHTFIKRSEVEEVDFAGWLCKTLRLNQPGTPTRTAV
MEK2 and ERK2, sequence (P36507 whole entry): as above
B-Raf and MEK2, sequence (P36507 whole entry): as above
MEK1 and ERK2, sequence (Q02750 whole entry): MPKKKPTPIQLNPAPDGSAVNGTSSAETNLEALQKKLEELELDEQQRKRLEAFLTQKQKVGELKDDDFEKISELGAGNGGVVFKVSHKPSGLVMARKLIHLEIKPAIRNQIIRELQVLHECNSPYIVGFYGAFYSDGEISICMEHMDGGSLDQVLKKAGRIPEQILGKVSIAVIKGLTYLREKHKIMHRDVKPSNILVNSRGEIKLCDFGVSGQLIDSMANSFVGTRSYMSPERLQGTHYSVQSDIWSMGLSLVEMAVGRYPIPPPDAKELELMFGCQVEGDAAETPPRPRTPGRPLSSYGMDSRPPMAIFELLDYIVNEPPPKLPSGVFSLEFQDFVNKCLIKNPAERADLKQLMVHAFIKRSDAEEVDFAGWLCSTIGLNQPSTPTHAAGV
B-Raf and MEK1, sequence (Q02750 whole entry): as above

Consider `Cn1c(=O)cc(Nc2ccc(I)cc2F)c2c(=O)n(C3CC3)c(=O)n(-c3cccc(NS(C)(=O)=O)c3)c21` [Example 1-257], for which the IC50 in assay [1] and in [6] was below 10 nM in each case. The “IC50 of various enzyme reaction system, B-Raf MEK1” value in assay [2] was determined as 6 nM. The “IC50 of various enzyme reaction system, MEK1 ERK2” value in assay [3] is 1300 nM. The fold induction at 0.1 µM in [4] was at least 1.5. Besides, the “IC50 of various enzyme reaction system, MEK2 ERK2” value in assay [5] stood at 1600 nM. For the same molecule, in assay [7], the “IC50 of various enzyme reaction system, B-Raf MEK2” value is 18.8 nM. Moreover, the response vs control in vivo at 30 mg/kg in [8] is 26%. In addition, in [9], the “IC50 of various enzyme reaction system, c-Raf MEK2” value is 7.8 nM.

In assay [10], `CC(=O)Nc1cccc(-n2c(=O)n(C3CC3)c(=O)c3c(Nc4ccc(I)cc4F)n(C)c(=O)c(C)c32)c1.CC(=O)O` [N-{3-[3-Cyclopropyl-5-(2-fluoro-4-iodo-phenylamino)-6,8-dimethyl-2,4,7-trioxo-3,4,6,7-tetrahydro-2H-pyrido[4,3-d]pyrimidin-1-yl]-phenyl}-acetamide Acetic Acid Solvate] showed an arthritis score of 0.57.
